Literature values, collected in patent US10874605B2, “Extended release biodegradable ocular implants” (Allergan, Inc., priority 2004, dated 2020).

Conditions: efficacy in vivo

SMILES: C[C@]12CCC(=O)C=C1CC[C@@H]1[C@@H]2[C@@H](O)C[C@@]2(C)[C@H]1CC[C@]2(O)C(=O)CO [hydrocortisone]
- dose equivalent to a 1 mg dose of dexamethasone: 25 mg
- potency relative to dexamethasone: approximately twenty five fold less potent than dexamethasone
